For data set [1], the system named is rats. Conditions: chronic oral administration; cited from earlier work.
For data set [2], the system named is rats. Conditions: rat, in vivo, po; cited from earlier work.
Data set [3] has as its system Keratinocytes (human keratinocyte cell line, HaCaT). Put plainly: Inflammatory cytokine expression (real-time PCR) in TNF-α/IFN-γ-stimulated keratinocytes. In kind it is cell-based. Conditions: 24 h, vs immune-response-induced control. On the procedure: (§1) Keratinocytes (human keratinocyte cell line, HaCaT) were purchased from ATCC (Manassas, Va., USA) and used. For cell culture, the culture medium of DMEM containing 10% fetal bovine serum (FBS) and antibiotics was used. The culture vessel used a 75T-flask and a 6-well plate, and cultured in a 37° C. incubator supplied with 5% CO2. The culture medium was changed every 3 to 4 days, and subculture was performed when the cells were excessively proliferated. The dispensed HaCaT cells (5×10^5/well) were cultured for 24 hours and then washed with PBS. In order to induce an immune response to keratinocytes, TNF-α (tumor necrosis factor-α) (10 ng/ml) and IFN-γ (interferon gamma) (10 ng/ml) were treated together in DMEM medium without FBS and incubated for 24 hours. At this time, in order to evaluate the efficacy of alleviating the immune response of undecane, 100 μM of undecane was simultaneously treated, and in the case of normal cells, DMSO instead of undecane, and in the case of positive control cells, 10 μM of tacrolimus instead of undecane were treated simultaneously with the immune response inducer and incubated for 24 hours.
(§2) After removing the supernatant of the mast cells that induced the immune response, 1 ml of trizol was added, left for 2 minutes, and chloroform was added, vortexed for 10 seconds, centrifuged at 5,000 rpm for 10 minutes, and the upper layer was taken, and mixed with the same amount of isopropanol and shaken. The supernatant was removed by centrifugation at 13,000 rpm for 25 minutes, and the pellet was dissolved in 20 μl of diethyl pyrocarbonate (DEPC)-DW and stored at −20° C. and then used in the experiment. RT-PCR was performed using a one-step RT-PCR PreMixkit (iNtRON Biotechnology, Korea) at 45° C. for 30 minutes and at 94° C. for 5 minutes, followed by denaturation at 94° C. for 30 seconds, and then after annealing at 55° C. for 30 seconds, the cycle of extension at 72° C. for 1 minute was repeated 32 times, and the last extension was performed at 72° C. for 5 minutes, and PiQ SYBR green supermix (Bio-Rad) and CFX Connect™ Real-Time PCR Detection System (Bio-Rad) was used to perform quantitative PCR, and the primer sequences used are as shown in Table 1.
as §1, with “undecanal,” for “undecane,”, “undecanal” for “undecane”
RNA isolation and real-time PCR (quantitative reverse-transcription polymerase chain reaction) using a Trizol method was performed by the same method as 3) RNA isolation using the Trizol method and real-time PCR of 1-1. of Example 1 described above.
(In qPCR the cycle at which signal appears reflects the starting amount.)

Data set [4] concerns Mast cells (rat basophilic leukemia cell line, RBL-2H3). Briefly: Inflammatory cytokine expression (real-time PCR) in anti-DNP-IgE/DNP-HSA-stimulated mast cells. In kind it is cell-based. Conditions: 1 h before DNP-HSA induction, vs immune-response-induced control. On the procedure: Then, it was sensitized with anti-DNP (dinitrophenyl)-IgE (30 ng/ml) and cultured for 24 hours at 37° C., 5% CO2 in an incubator. After washing twice with PBS (phosphate buffered saline), DNP-HSA (dinitrophenylated human serum albumin; 10 μg/ml) was treated for 4 hours to induce an immune response. In addition, in order to evaluate atopy alleviating effect by undecane, mast cells treated with anti-DNP (dinitrophenyl)-IgE and cultured for 24 hours were treated with 100 μM of undecane, cultured for 1 hour, and then an immune response was induced with DNP-HSA. Normal cells were treated with DMSO instead of undecane under the same conditions as undecane-treated cells, and positive control cells were treated with 10 μM of tacrolimus instead of undecane and cultured for 1 hour, and then, an immune response was induced with DNP-HSA.
as §2, with “1. […]” for “1.”
Then, it was sensitized with anti-DNP (dinitrophenyl)-IgE (30 ng/ml) and cultured for 24 hours at 37° C., 5% CO2 in an incubator. After washing twice with PBS (phosphate buffered saline), DNP-HSA (dinitrophenylated human serum albumin; 10 μg/ml) was treated for 4 hours to induce an immune response. In addition, in order to evaluate an effect of alleviating atopy by undecanal, mast cells treated with anti-DNP (dinitrophenyl)-IgE and cultured for 24 hours were treated with 100 μM of undecanal, cultured for 1 hour, and then an immune response was induced with DNP-HSA. Normal cells were treated with DMSO instead of undecanal under the same conditions as undecanal-treated cells, and positive control cells were treated with 10 μM of tacrolimus instead of undecanal and cultured for 1 hour, and then, an immune response was induced with DNP-HSA. […]

Data set [5] relates to rats. Conditions: cited from earlier work.
The mark [6] stands for this setting: 100 μM test compound together with TNF-α and IFN-γ.
Setting [7] is: positive control 10 μM together with TNF-α and IFN-γ.

Entries after “also recorded” stand apart in the source; their conditions may differ.

Regarding `CCCCCCCCCCC=O` [undecanal], the “no-observed-adverse-effect level (NOAEL)” value with rats [1] is reported as “about 1000 mg/kg bw”. In the data set with rats [2], the “LD50 (lethal dose, 50%)” value is > 5,000 mg/kg bw/day. Besides, in data set [3] (setting [6]), the “expression of IL-1β” value is reported as “significantly reduced; also recorded: remarkably reduced”, the “expression of IL-6” value was “significantly reduced; also recorded: remarkably reduced” and the “expression of IL-8” value was “significantly reduced; also recorded: remarkably reduced”. In data set [4] (100 μM test compound), the “expression of IL-4” value was “significantly reduced; also recorded: remarkably reduced”, the “expression of IL-13” value is “significantly reduced; also recorded: remarkably reduced” and the “expression of TNF-α” value is listed as “significantly reduced; also recorded: remarkably reduced”.

Turning to `CCCCCCCCCCC` [undecane], in the data set on rats [5], the “LD50 (lethal dose, 50%) for inhalation toxicity” value is “about 442 ppm/8H”. For the same compound, in data set [3] (setting [6]), the “expression of IL-1β” value is reported as “significantly reduced; also recorded: remarkably reduced”, the “expression of IL-6” value is reported as “significantly reduced; also recorded: remarkably reduced” and the “expression of IL-8” value is reported as “significantly reduced; also recorded: remarkably reduced”. Also, in data set [4] (100 μM test compound), the “expression of IL-4” value was “significantly reduced; also recorded: remarkably reduced”, the “expression of IL-13” value is reported as “significantly reduced; also recorded: remarkably reduced” and the “expression of TNF-α” value is given as “significantly reduced; also recorded: remarkably reduced”.

Turning to `C=CC[C@@H]1/C=C(\C)C[C@H](C)C[C@H](OC)[C@H]2O[C@@](O)(C(=O)C(=O)N3CCCC[C@H]3C(=O)O[C@H](/C(C)=C/[C@@H]3CC[C@@H](O)[C@H](OC)C3)[C@H](C)[C@@H](O)CC1=O)[C@H](C)C[C@@H]2OC` [tacrolimus, reference compound], in data set [3] (setting [7]), the “expression of IL-1β” value was “significantly reduced”, the “expression of IL-6” value was “significantly reduced” and the “expression of IL-8” value is listed as “significantly reduced”. In data set [4] (positive control 10 μM), the “expression of IL-4” value is “significantly reduced”, the “expression of IL-13” value is reported as “significantly reduced” and the “expression of TNF-α” value was “significantly reduced”.

These data come from patent publication US20220040122A1, “COMPOSITION FOR ALLERGY PREVENTION, ATOPIC DERMATITIS ALLEVIATION OR SKIN REGENERATION, CONTAINING, AS ACTIVE INGREDIENT, UNDECANE OR UNDECANAL” (BOTANICSENS, priority 2019, published 2022).
